The structures appear in SMILES notation.

This data set is described as follows: Human HepG2 cell viability assay in 384 well format. It is filed as toxicity, cell-based. Set-up: dose 125 nL, time 70.5 hour; concentration not given beside the values. The conditions noted are these: HepG2 cells, read-out: Inhibition.
For `CN(C(=O)c1cccc(C#N)c1)c1nnc(C2CCOC2)s1` (stereo not drawn), the cytotoxicity at 70.5 h was -7.42%.

`Cc1cccc(C2(CNC(=O)c3ccnc(N(C)C)c3)CCOCC2)c1`: the cytotoxicity at 70.5 h came out at 15.5%.

Turning to `Cc1onc(-c2ccncc2)c1C(=O)NC1CCCOC1` (stereo not drawn), the cytotoxicity at 70.5 h is -9.07%.

Regarding `CC(C)(C)C(=O)NCCc1cc(N2CCOCC2)nc(NC2CC2)n1`, the cytotoxicity at 70.5 h was -9.36%.

Turning to `Cc1nonc1CNC(=O)C(C)Oc1cccc(F)c1` (stereo not drawn), the cytotoxicity at 70.5 h was -8.47%.

With `c1cnc(Nc2ccc(C3CCCCN3Cc3ccncc3)cn2)nc1` (stereo not drawn), the cytotoxicity at 70.5 h was -6.32%.

For `O=C(c1cscn1)N1CCc2[nH]nc(Nc3ccccc3)c2C1`, the cytotoxicity at 70.5 h was -6.3%.

In the case of `COCCNc1ccc(CC2CCCN(c3ncccn3)C2)nn1` (stereo not drawn), the cytotoxicity at 70.5 h was -1.21%.

Turning to `Cc1nc(NCc2cccnc2)cc(C2COCCN2)n1` (stereo not drawn), the cytotoxicity at 70.5 h is -5.63%.

On to `Cc1cncc(C2CCN(Cc3ccncc3)CC2)n1`, for which the cytotoxicity at 70.5 h is -7.83%.

As to `Cc1ccnc(C2(C)CCCN2S(=O)(=O)c2ccccc2)n1` (stereo not drawn), the cytotoxicity at 70.5 h came to 16.3%.

As for `Cc1c(C(=O)N2CCC(C(=O)c3nc4ccccc4s3)CC2)cnn1C`, the cytotoxicity at 70.5 h is -0.714%.

On to `CN(C(=O)c1ccccn1)c1nnc(C2CCOC2)s1` (stereo not drawn), for which the cytotoxicity at 70.5 h is -7.71%.

On to `COc1cccc([C@@]2(O)CC[C@@H]3CN(C(=O)c4c[nH]nc4C)C[C@@H]32)c1`, for which the cytotoxicity at 70.5 h was -6.08%.

As for `Cc1nn(C)c(C)c1-c1ccc(=O)n(C(C)C(=O)NC2CC2)n1` (stereo not drawn), the cytotoxicity at 70.5 h turned out to be 17.4%.

With `Cc1nn(C)c(C)c1-c1ccc(=O)n(C(C)C(=O)NC2CCCC2)n1` (stereo not drawn), the cytotoxicity at 70.5 h was -5.55%.

In the case of `Cc1nc2cc(-c3nccn3C)nn2c(N2CCCC2)c1C`, the cytotoxicity at 70.5 h is -0.486%.

As to `CCc1cc(O)n2nc(C3CCCN3C(=O)c3ccccn3)cc2n1` (stereo not drawn), the cytotoxicity at 70.5 h came to 17%.

In the case of `COc1cc(CCC(=O)N2CCC(c3cc4ncccc4[nH]3)CC2)on1`, the cytotoxicity at 70.5 h stood at 22%.

With `Cc1cc(N2CCC(O)CC2)nc(C2CCCN2C)n1` (stereo not drawn), the cytotoxicity at 70.5 h was -5.82%.

As to `Cn1ccc2cc(CC3COCCN(C(=O)c4cccnc4)C3)ccc21` (stereo not drawn), the cytotoxicity at 70.5 h turned out to be 11.9%.

With `O=C(Cn1c(=O)n(Cc2ccco2)c2ncccc21)NC1CC1`, the cytotoxicity at 70.5 h is -4.4%.

Consider `CC1CCCCN1c1nc2c(c(=O)[nH]1)CCN(Cc1ccccn1)C2` (stereo not drawn), for which the cytotoxicity at 70.5 h worked out at 3.45%.

For the molecule `COc1cnc(C2(O)CCN(C(=O)c3ccccn3)CC2)c(OC)n1`, the cytotoxicity at 70.5 h is -13.1%.

Regarding `COc1cnc(C2(O)CCN(C(=O)c3scnc3C)CC2)c(OC)n1`, the cytotoxicity at 70.5 h was found to be 6.58%.

In the case of `CC(C)c1nccn1-c1cncc(C2CCCN(C3CCCCC3)C2)n1` (stereo not drawn), the cytotoxicity at 70.5 h is -0.366%.

`CCc1nccn1-c1cccc(C2CCCN(C3CCCCC3)C2)n1` (stereo not drawn): the cytotoxicity at 70.5 h is -0.595%.

On to `COCC(=O)N1CCN(c2cc(C)nc(C3CCCN3C(C)=O)c2)CC1` (stereo not drawn), for which the cytotoxicity at 70.5 h is -0.659%.

For the molecule `Cc1nccn1-c1cccc(C2CCCN(C3CCCC3)C2)n1` (stereo not drawn), the cytotoxicity at 70.5 h was -4.43%.

Consider `Cc1cc2cc(C(=O)N3C[C@H](O)[C@]4(CCCO4)C3)ccc2o1`, for which the cytotoxicity at 70.5 h was -2.18%.

As to `COc1ccccc1CC(=O)N1CC[C@H](O)[C@]2(CCCO2)C1`, the cytotoxicity at 70.5 h was -6.73%.

As for `C[C@]1(O)CN(Cc2ncccc2F)CC[C@@H]1Oc1cccc(F)c1`, the cytotoxicity at 70.5 h was -5.53%.

As to `COc1cc(CN2C[C@H](OC)[C@]3(CCCO3)C2)ccc1F`, the cytotoxicity at 70.5 h came out at 19.1%.

With `Cc1cccc(CC2COCCN(Cc3nccn3C)C2)n1` (stereo not drawn), the cytotoxicity at 70.5 h was -2.76%.

For `CNC(=O)C1CN(C(=O)COc2ccccc2)Cc2cn(C)nc21` (stereo not drawn), the cytotoxicity at 70.5 h was -3.29%.

`O=C(c1c[nH]c(=O)[nH]c1=O)N1CCCC(c2cnccn2)C1` (stereo not drawn): the cytotoxicity at 70.5 h was -2.78%.

For `C[C@]1(O)CN(CCC(N)=O)CC[C@@H]1Oc1cccc(F)c1`, the cytotoxicity at 70.5 h is -0.798%.

As for `Cc1cncc(C2CCCN(C(=O)c3cn(C)nc3C)C2)n1` (stereo not drawn), the cytotoxicity at 70.5 h was -3.29%.

Take `Cc1csc(C(=O)N2CCCC(c3[nH]ncc3S(C)(=O)=O)C2)c1` (stereo not drawn): the cytotoxicity at 70.5 h is -0.679%.

As to `Cc1cncc(C2CCCN(Cc3ccncc3)C2)n1` (stereo not drawn), the cytotoxicity at 70.5 h worked out at 13.6%.

For the molecule `CC(=O)N1CCCC(Cc2nccn2C)C1` (stereo not drawn), the cytotoxicity at 70.5 h was -5.45%.

With `O=C(COc1cccc(F)c1)N1C[C@@H](O)[C@H](N2CCOCC2)C1`, the cytotoxicity at 70.5 h was -5.2%.

Take `Cc1cccc(C2CCCN2S(=O)(=O)N(C)C)n1` (stereo not drawn): the cytotoxicity at 70.5 h is -2.59%.

In the case of `Cc1c[nH]nc1C1CCCCN1C(=O)CCn1nccc1C` (stereo not drawn), the cytotoxicity at 70.5 h was 11.5%.

`CO[C@H]1CN(Cc2ccccc2F)C[C@@]12CCCO2`: the cytotoxicity at 70.5 h is -5.8%.

As for `CN1CCC(c2cc(C(F)(F)F)n3ccnc3n2)CC1`, the cytotoxicity at 70.5 h worked out at 24.8%.

As to `Cc1nccn1-c1cncc(C2CCCN2Cc2cccnc2)n1` (stereo not drawn), the cytotoxicity at 70.5 h was determined as 19.3%.

On to `c1cnc(N2CCCC(c3cncc(-n4ccnc4)n3)C2)nc1` (stereo not drawn), for which the cytotoxicity at 70.5 h turned out to be 13.4%.

`COCc1cc(O)nc(C2CCCN(Cc3cccc(Cl)c3Cl)C2)n1` (stereo not drawn): the cytotoxicity at 70.5 h is -4.6%.

Regarding `COc1cc2nc3n(c(=O)c2cc1OC)CCN(C(=O)C(C)(C)C)CC3`, the cytotoxicity at 70.5 h is -1.33%.

Regarding `OC1CCN(Cc2c(-c3ccco3)[nH]c3ncccc23)CC1`, the cytotoxicity at 70.5 h was -5.94%.

In the case of `COc1ccc(CN2CCC(c3cc(O)nc(C)n3)C2)c(F)c1` (stereo not drawn), the cytotoxicity at 70.5 h was -1.14%.

As to `CCc1cc(C(=O)N2CCc3nc4c(C)csc4c(=O)n3CC2)on1`, the cytotoxicity at 70.5 h was 20.2%.

Consider `O=C(C1CCCC1)N1CCC(c2n[nH]c3nccnc23)CC1`, for which the cytotoxicity at 70.5 h is -1.92%.

Consider `COc1ccc(OC)c(CN2CCC(c3cc(O)nc(C)n3)C2)c1` (stereo not drawn), for which the cytotoxicity at 70.5 h came to 22.5%.

For the molecule `COCc1cc(O)nc(C2CCCN(Cc3ccc(OC)cc3)C2)n1` (stereo not drawn), the cytotoxicity at 70.5 h is -2.96%.

Regarding `COc1ncc(C2(O)CCN(Cc3cc(F)cc(F)c3)CC2)c(OC)n1`, the cytotoxicity at 70.5 h was -2.18%.

As to `CC(=O)NC[C@]1(O)CCN(C(=O)c2ccc(C)c(F)c2)C[C@H]1O`, the cytotoxicity at 70.5 h was -2.74%.

As for `O=C(N[C@@H]1CN(Cc2ccc3cc[nH]c3c2)C[C@H]1O)c1cnccn1`, the cytotoxicity at 70.5 h is -5.2%.

With `O=C(N[C@@H]1CN(Cc2cccc(F)c2)C[C@H]1O)c1cscn1`, the cytotoxicity at 70.5 h is -4.57%.

With `CN(c1ccncn1)C1CC2(CCN(C(=O)c3cncs3)C2)C1` (stereo not drawn), the cytotoxicity at 70.5 h is -2.06%.

Consider `CN(C(=O)C1CCOCC1)[C@@H]1CCC[C@@H](N2CCCC2)[C@@H]1O`, for which the cytotoxicity at 70.5 h is -3.82%.

Turning to `Cc1cnc(C2CCCN(C(=O)c3c[nH]c(=O)[nH]c3=O)C2)s1` (stereo not drawn), the cytotoxicity at 70.5 h is -8.7%.

Turning to `Cc1cccc(CN2CCC(c3nnc(-c4scnc4C)o3)CC2)c1`, the cytotoxicity at 70.5 h was 0.33%.

As for `Cc1ncsc1-c1nnc(C2CCN(Cc3ccc(Cl)cc3)CC2)o1`, the cytotoxicity at 70.5 h turned out to be 32.1%.

Consider `CC(=O)N1CCCC1c1cc(N2CCN(CC(C)(C)C)CC2)cc(C)n1` (stereo not drawn), for which the cytotoxicity at 70.5 h is -7.87%.

`CNc1cncc(C2CCCN2C(=O)c2ccc3c(c2)CCC3)n1` (stereo not drawn): the cytotoxicity at 70.5 h stood at 9.47%.

For `CCC(=O)N1CCCC1c1csc(Nc2cnccn2)n1` (stereo not drawn), the cytotoxicity at 70.5 h was -9.64%.

As to `CC(=O)N1CCCC(c2cccc(-n3ccnc3)n2)C1` (stereo not drawn), the cytotoxicity at 70.5 h is -7.9%.

With `c1cnc(N2CCC(c3n[nH]c4ncccc34)C2)nc1` (stereo not drawn), the cytotoxicity at 70.5 h was -7.93%.

Regarding `Cc1ncccc1Oc1nccnc1C1CCCN(C(C)C)C1` (stereo not drawn), the cytotoxicity at 70.5 h is -6.39%.

For the molecule `Cc1ccc(Oc2nccnc2C2CCN(C(=O)C(C)(C)N)CC2)cc1`, the cytotoxicity at 70.5 h was -6.45%.

In the case of `CCc1cc(=O)[nH]c(-c2ccc(NC(CO)CC(C)C)nc2)n1` (stereo not drawn), the cytotoxicity at 70.5 h is -2.63%.

Turning to `CC(CNC(=O)CCCn1cncn1)N1CCc2ccccc2C1` (stereo not drawn), the cytotoxicity at 70.5 h turned out to be 11.6%.

For the molecule `CC(C)C(CNC(=O)CCn1cncn1)N1CCc2ccccc2C1` (stereo not drawn), the cytotoxicity at 70.5 h was -6.95%.

As for `Cc1cccc(N2CCN(C(=O)CNCCn3cccn3)CC2)c1`, the cytotoxicity at 70.5 h is 9.75%.

In the case of `Cc1ccc(S(C)(=O)=O)cc1NCC(=O)NCCC1=CCCCC1`, the cytotoxicity at 70.5 h was -9.03%.

Regarding `COC(=O)c1cccc(S(=O)(=O)NCC(c2ccco2)N2CCCC2)c1` (stereo not drawn), the cytotoxicity at 70.5 h was -14.2%.

Regarding `COCCNC(=O)NCc1ccc(-n2ccc(C(F)(F)F)n2)cc1`, the cytotoxicity at 70.5 h was -7.44%.

As to `COC(=O)c1ccc2c(c1)CCCN2S(=O)(=O)c1cn(C)c(C)n1`, the cytotoxicity at 70.5 h was 1.33%.

`COC(=O)C1CCN(C(=O)Cn2ccc(-c3ccccc3)n2)CC1`: the cytotoxicity at 70.5 h is -10.6%.

`Cc1cccc(N2CCN(C(=O)CNCCn3cc(C)cn3)CC2)c1`: the cytotoxicity at 70.5 h worked out at 45%.

With `CC(C)c1noc(OCC(=O)N2CCCCC2C)n1` (stereo not drawn), the cytotoxicity at 70.5 h was -2.39%.

As for `CC1CCCCN1C(=O)COc1nc(C(C)(C)C)no1` (stereo not drawn), the cytotoxicity at 70.5 h was -2.52%.

`CCOC(=O)C1(NC(=O)CCNc2cc(C)ccc2OC)CCCCC1`: the cytotoxicity at 70.5 h was -4.71%.

Take `O=C(c1ccc2[nH]cnc2c1)N1CCC(COc2ccccn2)CC1`: the cytotoxicity at 70.5 h was -5.85%.

On to `c1cc(N2CCC(CN3CCOCC3)CC2)c2sccc2n1`, for which the cytotoxicity at 70.5 h is 0.228%.

For `CC(=O)Nc1ccc(Oc2cc(C)nc(C3CCCNC3)c2)cc1` (stereo not drawn), the cytotoxicity at 70.5 h was -3.03%.

For the molecule `Cc1cc(Oc2ccc(NC(=O)C3CC3)cc2)cc(C2CCNCC2)n1`, the cytotoxicity at 70.5 h is -4.04%.

On to `NCCc1cc(N2CCOCC2)nc(NC2CC2)n1`, for which the cytotoxicity at 70.5 h is -8.21%.

Turning to `Cn1ccnc1CNC(=O)c1cncc(C2CCNCC2)n1`, the cytotoxicity at 70.5 h was -5.18%.

`COc1ccccc1C(=O)N1CCCC1c1ncc2c(n1)CCNC2` (stereo not drawn): the cytotoxicity at 70.5 h was -2.07%.

As for `O=C(c1cccc(F)c1)N1CCCC1c1ncc2c(n1)CCNC2` (stereo not drawn), the cytotoxicity at 70.5 h was -4.38%.

With `COc1ncc(C2(O)CCN(Cc3cc(F)ccc3F)CC2)c(OC)n1`, the cytotoxicity at 70.5 h is -5.13%.

Take `Cc1cc(C[C@@H]2CCC[C@H]2NCc2c[nH]nc2-c2ccccc2)on1`: the cytotoxicity at 70.5 h was determined as 20.7%.

With `CC1(C)CC(N(Cc2ccncc2)Cc2cccnc2)CC(C)(C)N1`, the cytotoxicity at 70.5 h stood at 27.1%.

`Cc1ccsc1CN(Cc1cccnc1)C1CC(C)(C)NC(C)(C)C1`: the cytotoxicity at 70.5 h was 5.95%.

Consider `Cc1cc(C[C@@H]2CCC[C@H]2NCc2cccc(F)c2F)on1`, for which the cytotoxicity at 70.5 h was -2.88%.

The record behind these values is ChEMBL document CHEMBL3507680, “University of Dundee, Gates Library screen for HepG2 cell viability”.
